Measured values published in publication PMC6268373, “Systematic Study of the Physicochemical Properties of a Homologous Series of Aminobisphosphonates” (Molecules, 2012).
Converted amounts (≈) assume the structure as drawn.

Columns and labels:
[1] = Effect of pH on aqueous solubility; details: for pH of solubility minimum: pH range 0.5 to 11.0; for solubility at 30 min: water, pH adjusted with NaOH or HCl, 21 °C, thermodynamic from solid
Method: (§1) A Jasco V-530 UV/Vis spectrophotometer was used for phosphorus determination at 880 nm wavelength. Filtered liquid samples were diluted to the appropriate volume with Milli-Q water and were digested with the persulphate oxidation technique in acidic medium at elevated temperature to convert aminobisphosponates to orthophosphate. In an acidic medium, ammonium molybdate and antimony potassium tartrate react with orthophosphate to form a phosphomolybdic acid that is reduced to intensively colored molybdenum blue by ascorbic acid [30].
(§2) The mixture containing an excess of the studied compound was first agitated for predetermined time with magnetic stirrer and before taking the sample mixture was allowed to stand for 24 h without stirring. The sample (about 5 mL) was taken from liquid above the solids, pH was measured and the sample was filtered through 0.2 µm membrane filter to remove any possible insoluble particles. The phosphorus concentration in the filtered sample solution was determined by using the spectrophotometric method described above.

[2] = Aqueous solubility of saturated solution at 21 °C (phosphorus determination by molybdenum blue spectrophotometry); details: for solubility at 30 min: Milli-Q water, unbuffered, thermodynamic from solid; for solubility at 30 min / pH of saturated solution: 21 °C; for pH of saturated solution: saturated aqueous solution, agitation time 30 min
Method: as §1, §2

[3] = Thermal analysis (TG/DTA and TGA 7); assay type: physicochemical; details: for Td: 5 °C/min; for Temp. range of 1st cleavage: lower limit taken at 0.5 wt-%; for Td (decomposition onset): average from both instruments; for temperature of first decomposition step (cleavage of amino group / degradation): thermogravimetry
Method: Thermal decomposition paths with evaluation of crystal water content were obtained parallel with two instruments; Perkin Elmer STA 6000 thermogravimetric TG/DTA and Perkin Elmer TGA 7 analyzers (Perkin Elmer, Massachusetts, USA). Measurements were carried out in an open platinum crucible (the higher 5 mm crucible was used in TG/DTA and a shallower 2 mm crucible in TGA 7) under air atmosphere (flow rate of 45 mL/min) with a heating rate of 5 °C/min over the temperature range of 25−700 °C. The temperature calibration of STA 6000 was made using melting points of indium (156.60 °C) and zinc (419.5 °C) standards. For TGA 7 magnetic Curie-point calibration technique (Alumel, Ni, Perkalloy, Fe) was used. The weight balance of both instruments was calibrated by measuring a standard weight of 50 mg at room temperature. The sample weights used in the measurements were about 4–8 mg, and for each bisphosphonate, it was attempted to keep the same on both instruments. The melting/dehydration/decomposition behavior of the compounds was also visually monitored using a Stuart Scientific SMP3 melting point apparatus.

| Compound | pH of solubility minimum [1] | solubility at 30 min ([1]; pH 0, aqueous buffer) [µg/mL] | solubility at 30 min ([1]; pH 1, aqueous buffer) [µg/mL] | solubility at 30 min ([1]; pH 2, aqueous buffer) [µg/mL] | solubility at 30 min ([1]; pH 3, aqueous buffer) [µg/mL] | solubility at 30 min ([1]; pH 4, aqueous buffer) [µg/mL] | solubility at 30 min ([1]; pH 5, aqueous buffer) [µg/mL] | solubility at 30 min ([1]; pH 6, aqueous buffer) [µg/mL] | solubility at 30 min ([1]; pH 7, aqueous buffer) [µg/mL] | solubility at 30 min ([1]; pH 8, aqueous buffer) [µg/mL] | solubility at 30 min ([2]; water) [µg/mL] | pH of saturated solution [2] | Onset temperature of first cleavage ([3]; TG/DTA, higher crucible) [°C] | Td ([3]; TG/DTA, higher crucible, air) [°C] | Temp. range of 1st cleavage ([3]; TG/DTA, higher crucible) | Onset temperature of first cleavage ([3]; TGA 7, shallow crucible) [°C] | Td ([3]; TGA 7, shallow crucible, air) [°C] | Temp. range of 1st cleavage ([3]; TGA 7, shallow crucible) | Td (decomposition onset) ([3]; air, heating rate 5 °C/min) [°C] | temperature of first decomposition step (cleavage of amino group / degradation) ([3]; air) | also measured |
| --- | --- | --- | --- | --- | --- | --- | --- | --- | --- | --- | --- | --- | --- | --- | --- | --- | --- | --- | --- | --- | --- |
| NCCCCCCCCCCCC(O)(P(=O)(O)O)P(=O)(O)O [Compound 9, (12-Amino-1-hydroxydodecylidene)bisphosphonic acid] | ~2 | 130 (≈ 360 µM) | 80 (≈ 221 µM) | 70 (≈ 194 µM) | 80 (≈ 221 µM) | 140 (≈ 387 µM) | 200 (≈ 554 µM) | 210 (≈ 581 µM) | 200 (≈ 554 µM) | 240 (≈ 664 µM) | 30 (≈ 83 µM) | 4.05 | 185 | 185 | 163–232 °C | 191 | 191 | 155–221 °C | 188 | about 200 °C | solubility at 30 min ([1]; pH 9, aqueous buffer): 250 µg/mL (≈ 692 µM); solubility at 30 min ([1]; pH 10, aqueous buffer): 400 µg/mL (≈ 1110 µM); solubility at 30 min ([1]; pH 11, aqueous buffer): 470 µg/mL (≈ 1300 µM) |
| NCCCCCCCCCCC(O)(P(=O)(O)O)P(=O)(O)O [Compound 8, (11-Amino-1-hydroxyundecylidene)bisphosphonic acid] | ~2 | 180 (≈ 518 µM) | 80 (≈ 230 µM) | 50 (≈ 144 µM) | 80 (≈ 230 µM) | 180 (≈ 518 µM) | 230 (≈ 662 µM) | 270 (≈ 777 µM) | 290 (≈ 835 µM) | 250 (≈ 720 µM) | 58 (≈ 167 µM) | 4.71 | 73 | 199 | 50–146 °C | 70 | 204 | 39–149 °C | 202 | 200 °C | solubility at 30 min ([1]; pH 9, aqueous buffer): 290 µg/mL (≈ 835 µM); solubility at 30 min ([1]; pH 10, aqueous buffer): 400 µg/mL (≈ 1150 µM); solubility at 30 min ([1]; pH 11, aqueous buffer): 370 µg/mL (≈ 1070 µM); Temp. range of dehydration ([3]; air, heating rate 5 °C/min): 40–148 °C; onset T of dehydration ([3]; air, heating rate 5 °C/min): 72 °C |
| NCCCCCCCCCC(O)(P(=O)(O)O)P(=O)(O)O [Compound 7, (10-Amino-1-hydroxydecylidene)bisphosphonic acid] | – | – | – | – | – | – | – | – | – | – | 217 (≈ 651 µM) | 3.28 | 185 | 185 | 175–211 °C | 189 | 189 | 161–227 °C | 187 | about 200 °C | water solubility (in words) ([2]; water): hundreds of milligrams |
